Read-outs that look alike come from different tables or passages of the source.
Experiments:
[1] = In vitro release study (dialysis bag, phosphate buffer pH 7.4); format: physicochemical
Description: The in vitro release of RSV from the prepared liposomal NPs, chitoplexes nano-formulation and pure drug suspension was studied. A quantity of each preparation containing 9 mg of drug was placed in a firmly sealed dialysis bag (Sigma-Aldrich Inc.) of a molecular weight cut-off 14 kDa. The dialysis bag was immersed in a glass bottle containing 400 mL phosphate buffer of pH 7.4. The bottles were kept in a shaking water bath (Model 1031; GFL Corporation, Burgwedel, Germany) at 37° C. and 100 rpm. The parameters of the in vitro release study were selected to achieve a sink condition. Aliquots of 2 mL were taken from the receptor compartment at predetermined time intervals with immediate replacement. The quantity of RSV in the withdrawn samples was determined spectrophotometrically at 242 nm. The experiment was done in triplicate for each formulation and mean values were calculated.

[2] = system: human colorectal (HCT-116) cells; experiment: Cell viability and cytotoxicity assay (MTT); format: cell-based; settings: HCT-116, MTT
Description: This test aimed to determine the effect of the prepared RSV lipid-based NPs formulations on intestinal cell viability and cytotoxicity. The potential effects of both formulations on human colorectal (HCT-116) cells were assessed by 3-(4,5-dimethylthiazol-2-yl)2,5-diphenyl tetrazolium bromide (MTT) assay. Cells were seeded on 96-well plates (1×10^4 cells/well) and incubated at 37° C. under a humidified atmosphere of 5% CO2 for 24 h. […] Each formulation was compared with a drug-free carrier as a negative control. After incubation, SFM in the control and test wells were replaced by 100 μL/well of MTT solution (0.5 mg/ml) in PBS and incubated at 37° C. for another 3 h. The MTT solution was removed and the purple formazan crystals formed at the bottom of the wells were dissolved using 100 μL DMSO/well with shaking for 2 h at room temperature. The intensity of the color obtained was measured at 549 nm using a microplate reader (ELX 800; Bio-Tek Instruments, Winooski, Vt., USA). Data, expressed as the percentage of viable cells, were compared to the survival of a control group. Values of the half maximal inhibitory concentration (IC50) were also estimated. Cells treated with DMSO only were defined as 100%
To examine the biocompatibility and cytotoxic effects of plain and drug loaded liposomal NPs or chitoplexes nano-formulation, HCT-116 cells were treated with different concentrations of these samples for 3 days and the MTT assay was performed to investigate the effect of these formulation on the viability of living cells. This test depends on the production of a colored formazan by the action of the viable cells' mitochondrial enzymes on MTT. Cells were exposed to increasing RSV concentrations of drug loaded liposomal NPs and chitoplexes nano-formulation standardized at certain RSV concentrations. Cells were also incubated with blank liposomal NPs and chitoplexes nano-formulation to exclude the effect of RSV. […]

[3] = cited from earlier work
[4] = cited from earlier work; remark: listed apart in the source

## CC(C)c1nc(N(C)S(C)(=O)=O)nc(-c2ccc(F)cc2)c1/C=C/[C@@H](O)C[C@@H](O)CC(=O)O [RSV pure, Rosuvastatin]
[1]; dialysis bag 14 kDa, phosphate buffer pH 7.4, 37° C., 100 rpm, 24 h
  drug release after 24 h: 37.28±2.86%
[1]; dialysis bag, phosphate buffer pH 7.4, FIG. 4
  drug release pattern: overall low drug release pattern
[2]; after 24 h, read-out: IC50 (μM) after 24 h
  IC50: 248 µM
[2]; after 48 h, read-out: IC50 (μM) after 48 h
  IC50: 237 µM
[2]; after 72 h, read-out: IC50 (μM) after 72 h
  IC50: 168 µM
[3]; in vivo
  elimination half-life: ~19 h
  excreted in feces: 90%
  time to maximum plasma concentration: 3 to 5 h
[3]; mainly to serum albumin
  bound to plasma protein: 88%
[3]; oral
  oral bioavailability: ~20%
  orally administered dose absorbed: about 25%
[4]
  water solubility: low

Reference: patent US11141383B1, “Drug loaded flexible chitoplexes nanoparticles” (King Abdulaziz University, priority 2020, dated 2021)
